The source of these data is patent publication US20120122870A1, “Treatment Of Ischemia-Reperfusion Injury” (MUSC FOUNDATION FOR RESEARCH DEVELOPMENT, priority 2009, published 2012).

In the first assay the test system is endogenous SK activity in MDA-MB-231 cells. The assay can be described thus: Cellular S1P production (endogenous SK activity) in MDA-MB-231 cells. It counts as cell-based. To be noted: Homo sapiens, MDA-MB-231, MDA-MB-231 cells incubated with 20 μg/mL of compound; percentage of S1P production inhibited. The protocol:
Human SK was incubated with 6 μg/mL of the indicated compounds, and then assayed for activity as described above. Values in the column labeled “Recombinant SK (% inhibition)” represent the percentage of SK activity that was inhibited. MDA-MB-231 cells were incubated with 20 μg/mL of the indicated compounds and then assayed for endogenous SK activity as indicated above. Values in the column labeled “Cellular S1P (% inhibition)” represent the percentage of S1P production that was inhibited. Additionally, MDA-MB-231 cells were treated with varying concentration of certain compounds and the amount of S1P produced by the cells was determined. Values in the column labeled “Cellular S1P IC50 (μM)” represent the concentration of compound required to inhibit the production of S1P by 50%. ND=not determined.
In the case of `O=C(NCCc1ccc(O)c(O)c1)C12CC3CC(C1)CC(c1ccc(Cl)cc1)(C3)C2` [A44, 3-(4-Chloro-phenyl)-adamantane-1-carboxylic acid [2-(3,4-dihydroxy-phenyl)-ethyl]-amide], at 20 µg/mL the inhibition was 88%.

In turn, `CC(C)NCC12CC3CC(C1)CC(c1ccc(Cl)cc1)(C3)C2` [A75, [3-(4-Chloro-phenyl)-adamantan-1-ylmethyl]-isopropyl-amine] had an inhibition at 20 µg/mL of 41%.

As to `O=C(Nc1ccc(Cl)c(C(F)(F)F)c1)Nc1nc(-c2ccc(Cl)cc2)cs1` [B1, 1-[4-(4-Chloro-phenyl)-thiazol-2-yl]-3-(4-chloro-3-trifluoromethyl-phenyl)-urea], testing at 20 µg/mL gave an inhibition of 32%.

`CCCCCCCCCCCCCC(=O)Nc1nc(-c2ccc(Cl)cc2)cs1` [B2, Tetradecanoic acid [4-(4-chloro-phenyl)-thiazol-2-yl]-amide]: the inhibition at 20 µg/mL is 43%.

The compound `C=CCCCCCCCCC(=O)Nc1nc(-c2ccc(Cl)cc2)cs1` [B4, Undec-10-enoic acid [4-(4-chloro-phenyl)-thiazol-2-yl]-amide] yielded an inhibition at 20 µg/mL of 39%.

`O=C(C=Cc1ccc([N+](=O)[O-])cc1)Nc1nc(-c2ccc(Cl)cc2)cs1` [B5, N-[4-(4-Chloro-phenyl)-thiazol-2-yl]-3-(4-nitro-phenyl)-acrylamide] came in with an inhibition at 20 µg/mL of 25%.

`CCCCCCCCC=CCCCCCCCC(=O)Nc1nc(-c2ccc(Cl)cc2)cs1` [B6, Octadec-9-enoic acid [4-(4-chloro-phenyl)-thiazol-2-yl]-amide]: the inhibition at 20 µg/mL turned out to be 21%.

The compound `O=C(C=Cc1ccccc1)Nc1nc(-c2ccc(Cl)cc2)cs1` [B7, N-[4-(4-Chloro-phenyl)-thiazol-2-yl]-3-phenyl-acrylamide] came in with an inhibition at 20 µg/mL of 21%.

`CCCC(=O)Oc1ccc(C=CC(=O)Nc2nc(-c3ccc(Cl)cc3)cs2)cc1OC` [B8, Butyric acid 4-{2-[4-(4-chloro-phenyl)-thiazol-2-ylcarbamoyl]-vinyl}-2-methoxy-phenyl ester]: the inhibition at 20 µg/mL was 80%.

Compound `COc1cc(C=CC(=O)Nc2nc(-c3cccc(Cl)c3)cs2)ccc1O` [B9, N-[4-(3-Chloro-phenyl)-thiazol-2-yl]-3-(4-hydroxy-3-methoxy-phenyl)-acrylamide] showed an inhibition at 20 µg/mL of 32%.

`COc1cc(C=CC(=O)Nc2nc(-c3ccc(Cl)cc3)cs2)ccc1OC(C)=O` [B10, Acetic acid 4-{2-[4-(4-chloro-phenyl)-thiazol-2-ylcarbamoyl]-vinyl}-2-methoxy-phenyl ester]: testing at 20 µg/mL gave an inhibition of 48%.

As to `CCCC(=O)Oc1ccc(C=CC(=O)Nc2nc(-c3ccc(Cl)cc3)cs2)cc1OC(=O)CCC` [B11, Butyric acid 2-butyryloxy-5-{2-[4-(4-chloro-phenyl)-thiazol-2-ylcarbamoyl]-vinyl}-phenyl ester], the inhibition at 20 µg/mL was determined as 55%.

In the case of `CC(=O)Oc1ccc(C=CC(=O)Nc2nc(-c3ccc(Cl)cc3)cs2)cc1` [B12, Acetic acid 4-{2-[4-(4-chloro-phenyl)-thiazol-2-ylcarbamoyl]-vinyl}-phenyl ester], at 20 µg/mL the inhibition was 13%.

Turning to `CCCC(=O)Oc1ccccc1C=CC(=O)Nc1nc(-c2ccc(Cl)cc2)cs1` [B13, Butyric acid 2-{2-[4-(4-chloro-phenyl)-thiazol-2-ylcarbamoyl]-vinyl}-phenyl ester], the inhibition at 20 µg/mL amounted to 0%.

Turning to `CCCC(=O)Oc1cccc(C=CC(=O)Nc2nc(-c3ccc(Cl)cc3)cs2)c1` [B14, Butyric acid 3-{2-[4-(4-chloro-phenyl)-thiazol-2-ylcarbamoyl]-vinyl}-phenyl ester], testing at 20 µg/mL gave an inhibition of 39%.

`CCCC(=O)Oc1ccc(C=CC(=O)Nc2nc(-c3ccc(Cl)cc3)cs2)cc1` [B15, Butyric acid 4-{2-[4-(4-chloro-phenyl)-thiazol-2-ylcarbamoyl]-vinyl}-phenyl ester] registered an inhibition at 20 µg/mL of 23%.

Take `CCCC(=O)Oc1ccc(CC(=O)Nc2nc(-c3ccc(Cl)cc3)cs2)cc1OC` [B16, Butyric acid 4-{[4-(4-chloro-phenyl)-thiazol-2-ylcarbamoyl]-methyl}-2-methoxy-phenyl ester]: 20 µg/mL produced 83% inhibition.

`CCCC(=O)Oc1ccc(CC(=O)Nc2nc(-c3ccc(Cl)cc3)cs2)cc1OC(=O)CCC` [B17, Butyric acid 2-butyryloxy-5-{[4-(4-chloro-phenyl)-thiazol-2-ylcarbamoyl]-methyl}-phenyl ester] gave an inhibition at 20 µg/mL of 57%.

For the compound `CCCC(=O)Oc1cc(C=CC(=O)Nc2nc(-c3ccc(Cl)cc3)cs2)ccc1OC` [B18, Butyric acid 5-{2-[4-(4-chloro-phenyl)-thiazol-2-ylcarbamoyl]-vinyl}-2-methoxy-phenyl ester], the inhibition at 20 µg/mL worked out at 65%.

`CCCC(=O)Oc1ccc(C=CC(=O)Nc2nc(-c3ccc(C)cc3)cs2)cc1OC` [B19, Butyric acid 2-methoxy-4-[2-(4-p-tolyl-thiazol-2-ylcarbamoyl)-vinyl]-phenyl ester] displayed an inhibition at 20 µg/mL of 53%.

Regarding `CCCC(=O)Oc1ccc(C=CC(=O)Nc2nc(-c3ccc(Br)cc3)cs2)cc1OC` [B20, Butyric acid 4-{2-[4-(4-bromo-phenyl)-thiazol-2-ylcarbamoyl]-vinyl}-2-methoxy-phenyl ester], the inhibition at 20 µg/mL worked out at 62%.

`O=C(C=Cc1ccc2c(c1)OCO2)Nc1nc(-c2ccc(Cl)cc2)cs1` [B21, 3-Benzo[1,3]dioxol-5-yl-N-[4-(4-chloro-phenyl)-thiazol-2-yl]-acrylamide] showed an inhibition at 20 µg/mL of 41%.

`O=C(Cc1ccc2c(c1)OCO2)Nc1nc(-c2ccc(Cl)cc2)cs1` [B22, 2-Benzo[1,3]dioxol-5-yl-N-[4-(4-chloro-phenyl)-thiazol-2-yl]-acetamide]: 20 µg/mL produced 33% inhibition.

`COc1ccc(CCC(=O)Nc2nc(-c3ccc(Cl)cc3)cs2)cc1OC` [B23, N-[4-(4-Chloro-phenyl)-thiazol-2-yl]-3-(3,4-dimethoxy-phenyl)-propionamide]: 20 µg/mL produced 14% inhibition.

As for `CCCC(=O)Oc1ccc(C(=O)Nc2nc(-c3ccc(Cl)cc3)cs2)cc1OC` [B24, Butyric acid 4-[4-(4-chloro-phenyl)-thiazol-2-ylcarbamoyl]-2-methoxy-phenyl ester], the inhibition at 20 µg/mL worked out at 69%.

The compound `CCCC(=O)Oc1ccc(C(=O)Nc2nc(-c3ccc(Cl)cc3)cs2)cc1OC(=O)CCC` [B25, Butyric acid 2-butyryloxy-4-[4-(4-chloro-phenyl)-thiazol-2-ylcarbamoyl]-phenyl ester] yielded an inhibition at 20 µg/mL of 79%.

As for `CCCC(=O)Oc1ccc(CCC(=O)Nc2nc(-c3ccc(Cl)cc3)cs2)cc1OC(=O)CCC` [B26, Butyric acid 2-butyryloxy-4-{2-[4-(4-chloro-phenyl)-thiazol-2-ylcarbamoyl]-ethyl}-phenyl ester], at 20 µg/mL the inhibition was 79%.

With `CCCC(=O)Oc1cc(C(=O)Nc2nc(-c3ccc(Cl)cc3)cs2)cc(OC(=O)CCC)c1OC(=O)CCC` [B27, Butyric acid 2,6-bis-butyryloxy-4-[4-(4-chloro-phenyl)-thiazol-2-ylcarbamoyl]-phenyl ester], testing at 20 µg/mL gave an inhibition of 68%.

`CCCC(=O)Oc1ccc(C=CC(=O)Nc2nc(-c3ccc(F)cc3)cs2)cc1OC` [B28, Butyric acid 4-{2-[4-(4-fluoro-phenyl)-thiazol-2-ylcarbamoyl]-vinyl}-2-methoxy-phenyl ester] displayed an inhibition at 20 µg/mL of 65%.

As to `O=C(NCc1ccncc1)c1nc(-c2ccc(Cl)cc2)cs1` [B34, 4-(4-Chloro-phenyl)thiazole-2-carboxylic acid (pyridin-4-ylmethyl)amide], 20 µg/mL produced 28% inhibition.

For `CN(C)c1ccc(CNC(=O)c2nc(-c3ccc(Cl)cc3)cs2)cc1` [B35, 4-(4-Chloro-phenyl)-thiazole-2-carboxylic acid 4-dimethylamino-benzylamide], the inhibition at 20 µg/mL amounted to 17%.

`O=C(NCc1cc(F)cc(F)c1)c1nc(-c2ccc(Cl)cc2)cs1` [B36, 4-(4-Chloro-phenyl)-thiazole-2-carboxylic acid 3,5-difluoro-benzylamide]: at 20 µg/mL the inhibition was 0%.

`O=C(NCc1ccc(Cl)c(C(F)(F)F)c1)c1nc(-c2ccc(Cl)cc2)cs1` [B37, 4-(4-Chloro-phenyl)-thiazole-2-carboxylic acid 4-chloro-3-trifluoromethyl-benzylamide] had an inhibition at 20 µg/mL of 0%.

As for `O=C(NCc1ccc(F)cc1Cl)c1nc(-c2ccc(Cl)cc2)cs1` [B38, 4-(4-Chloro-phenyl)-thiazole-2-carboxylic acid 2-chloro-4-fluoro-benzylamide], testing at 20 µg/mL gave an inhibition of 0%.

Consider `O=C(NCc1ccc(F)c(Cl)c1)c1nc(-c2ccc(Cl)cc2)cs1` [B39, 4-(4-Chloro-phenyl)-thiazole-2-carboxylic acid 3-chloro-4-fluoro-benzylamide], for which at 20 µg/mL the inhibition was 0%.

On to `O=C(NCc1ccc(F)c(F)c1)c1nc(-c2ccc(Cl)cc2)cs1` [B40, 4-(4-Chloro-phenyl)-thiazole-2-carboxylic acid 3,4-difluoro-benzylamide], for which the inhibition at 20 µg/mL came out at 0%.

With `COc1ccc(CCNC(=O)c2nc(-c3ccc(Cl)cc3)cs2)cc1Br` [B41, 4-(4-Chloro-phenyl)-thiazole-2-carboxylic acid [2-(3-bromo-4-methoxy-phenyl)-ethyl]-amide], the inhibition at 20 µg/mL amounted to 0%.

As to `O=C(NCc1cc(F)c(F)c(F)c1)c1nc(-c2ccc(Cl)cc2)cs1` [B42, 4-(4-Chloro-phenyl)-thiazole-2-carboxylic acid 3,4,5-trifluoro-benzylamide], the inhibition at 20 µg/mL was 0%.

The same assay, now with this note: Homo sapiens; MDA-MB-231 cells, varying concentrations; concentration inhibiting S1P production by 50%.
`O=C(NCCc1ccc(O)c(O)c1)C12CC3CC(C1)CC(c1ccc(Cl)cc1)(C3)C2` [A44, 3-(4-Chloro-phenyl)-adamantane-1-carboxylic acid [2-(3,4-dihydroxy-phenyl)-ethyl]-amide] returned a 50% inhibitory concentration (IC50) of 35 µM.

`CCCC(=O)Oc1ccc(C=CC(=O)Nc2nc(-c3ccc(Cl)cc3)cs2)cc1OC` [B8, Butyric acid 4-{2-[4-(4-chloro-phenyl)-thiazol-2-ylcarbamoyl]-vinyl}-2-methoxy-phenyl ester] returned a half-maximal inhibitory concentration (IC50) of 34 µM. This IC50 and that of the compound before are within 1.5-fold of each other.
